According to US20240254129A1, “HETEROCYCLIC COMPOUNDS AND USES THEREOF” (Kumquat Biosciences Inc., priority 2021, published 2024):
pIC50: −log10 of the molar value.

Tests used:
[1] = target: GST-tagged K-Ras mutant / His-tagged hSOS1 (Homo sapiens, UniProt P01116); test: HTRF assay, K-Ras mutant / SOS1 interaction; assay type: binding; settings: compound nos. 401-703; read-out: IC50 against mutant Kras
How it was run: (§1)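 GST-tagged K-Ras (mutant or wildtype) with anti-GST-Eu donor was mixed with His-hSOS1 and anti-6His-XL665 acceptor in HEPES pH 7.4 buffer with NaCl, DTT, BSA and Igepal. After ≥10 min, HTRF was read (ex 337 nm, em 620/665 nm); 665/620 ratios gave IC50 from duplicate dilution series.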

wildtype Kras / hSOS1 = target: T1, wildtype Kras / hSOS1 (Homo sapiens, UniProt P01116); test: HTRF assay, wildtype Kras / SOS1 interaction; assay type: binding; settings: compound nos. 401-703; read-out: IC50 against wildtype Kras
T1 construct: made in house; host or cells: E. coli BL21 (DE3)
How it was run: as §1

T1 sequence (P01116 1-188 isoform P01116-2): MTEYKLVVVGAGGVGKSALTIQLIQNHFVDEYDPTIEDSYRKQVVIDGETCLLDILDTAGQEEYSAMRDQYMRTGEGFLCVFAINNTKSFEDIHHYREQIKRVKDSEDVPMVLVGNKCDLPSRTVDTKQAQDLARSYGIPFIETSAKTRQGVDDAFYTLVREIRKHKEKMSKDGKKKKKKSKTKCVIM
GST-tagged K-Ras mutant / His-tagged hSOS1, sequence (P01116 whole entry G12D, form open): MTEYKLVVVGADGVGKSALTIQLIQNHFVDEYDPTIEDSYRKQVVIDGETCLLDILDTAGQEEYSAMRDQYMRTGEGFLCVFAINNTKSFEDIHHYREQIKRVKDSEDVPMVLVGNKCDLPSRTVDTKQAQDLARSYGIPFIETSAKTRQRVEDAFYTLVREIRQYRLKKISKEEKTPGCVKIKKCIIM

pIC50 [1]	pIC50 (wildtype Kras / hSOS1)	Compound
> 6.30	< 6.30	CS(=O)(=O)N1CCCN(c2nc(OC[C@@]34CCCN3C[C@H](F)C4)nc3c(F)c(-c4ccc(F)c5sc(N)nc45)c(Cl)cc23)CC1 [Compound 644, 4-(6-chloro-8-fluoro-2-(((2R,7aS)-2-fluorotetra-hydro-1H-pyrrolizin-7a(5H)-yl)methoxy)-4-(4-(methylsulfonyl)-1,4-diazepan-1-yl)quinazolin-7-yl)-7-fluorobenzo[d]thia-zol-2-amine]
< 6.30	< 6.30	Cc1nc(N2CCCCCC2)c2cc(Cl)c(-c3cccc4sc(N)nc34)cc2n1 [Compound 645, 4-(4-(azepan-1-yl)-6-chloro-2-methylquinazolin-7-yl)-benzo[d]thiazol-2-amine]
< 6.30	< 6.30	CCCC1CCCN(c2nc(OC[C@@H]3CCCN3C)nc3c(F)c(-c4cccc5sc(N)nc45)c(Cl)cc23)CC1 (stereo partly drawn) [Compound 646, 4-(6-chloro-8-fluoro-2-(((S)-1-methylpyrrolidin-2-yl)-methoxy)-4-(4-propylaze-pan-1-yl)quinazolin-7-yl)-benzo[d]thiazol-2-amine]
< 6.30	< 6.30	CN(CCC1CCC[N+]1(C)C)c1nc(N2CC3CCC(C2)N3)c2ccc(-c3ccc(F)c4sc(N)nc34)nc2n1 (stereo not shown) [Compound 647, 4-(4-(3,8-diazabicyclo-[3.2.1]octan-3-yl)-2-((2-(1,1-dimethyl-114-pyrrol-idin-2-yl)ethyl)(methyl)-amino)pyrido[2,3-d]pyr-imidin-7-yl)-7-fluoroben-zo[d]thiazol-2-amine]
< 6.30	< 6.30	Cc1cc(N)nc(-c2ccc3c(N4CC5CCC(C4)N5)nc(OC[C@@]45CCCN4C[C@H](F)C5)nc3c2F)c1C1CC1 [Compound 648, 6-(4-(3,8-diazabicyclo-[3.2.1]octan-3-yl)-8-fluoro-2-(((2R,7aS)-2-fluorotetra-hydro-1H-pyrrolizin-7a(5H)-yl)methoxy)quinazolin-7-yl)-5-cyclopropyl-4-methyl-pyridin-2-amine]
> 6.30	< 6.30	Nc1nc2c(-c3c(Cl)cc4c(N5CCN(Cc6cncnc6)CC(F)(F)C5)nc(OC[C@@]56CCCN5C[C@H](F)C6)nc4c3F)ccc(F)c2s1 [Compound 649, 4-(6-chloro-4-(6,6-difluoro-4-(pyrimidin-5-ylmethyl)-1,4-diazepan-1-yl)-8-fluoro-2-(((2R,7aS)-2-fluorotetra-hydro-1H-pyrrolizin-7a(5H)-yl)methoxy)quinazolin-7-yl)-7-fluorobenzo[d]thiazol-2-amine]
< 6.30	< 6.30	Oc1ccc2ccc(-c3c(Cl)cc4c(N5CC6CCC(C5)N6)nc(OCC56CCCN5CCC6)nc4c3F)cc2c1 [Compound 650, 7-(4-(3,8-diazabicyclo-[3.2.1]octan-3-yl)-6-chloro-8-fluoro-2-((tetrahydro-1H-pyrrolizin-7a(5H)-yl)meth-oxy)quinazolin-7-yl)naph-thalen-2-ol]
> 6.30	< 6.30	CN1CCC[C@H]1COc1nc(N2CCCC(n3ccnc3)CC2)c2cc(Cl)c(-c3cccc4sc(N)nc34)c(F)c2n1 (stereo partly drawn) [Compound 651, 4-(4-(4-(1H-imidazol-1-yl)-azepan-1-yl)-6-chloro-8-fluoro-2-(((S)-1-methyl-pyrrolidin-2-yl)methoxy)-quinazolin-7-yl)benzo[d]-thiazol-2-amine]
< 6.30	< 6.30	Nc1cccc(-c2ccc(O)cc2-c2c(Cl)cc3c(N4CC5CCC(C4)N5)nc(OCC45CCCN4CCC5)nc3c2F)c1 [Compound 652, 2-(4-(3,8-diazabicyclo-[3.2.1]octan-3-yl)-6-chloro-8-fluoro-2-((tetrahydro-1H-pyrrolizin-7a(5H)-yl)meth-oxy)quinazolin-7-yl)-3′-amino-[1,1′-biphenyl]-4-ol]
> 6.30	< 6.30	Nc1nc2c(-c3c(Cl)cc4c(N5CC6CCC(C5)N6)nc(OCC5(CN6CCCC6)CC5)nc4c3F)cccc2o1 [Compound 653, 4-(4-(3,8-diazabicyclo-[3.2.1]octan-3-yl)-6-chloro-8-fluoro-2-((1-(pyrrolidin-1-ylmethyl)cyclopropyl)meth-oxy)quinazolin-7-yl)benzo-[d]oxazol-2-amine]
< 6.30	< 6.30	Fc1c(-c2cccc3[nH]ncc23)ccc2c(N3CC4CCC(C3)N4)nc(OC[C@@]34CCCN3C[C@H](F)C4)nc12 [Compound 654, 4-(3,8-diazabicyclo[3.2.1]-octan-3-yl)-8-fluoro-2-(((2R,7aS)-2-fluorotetra-hydro-1H-pyrrolizin-7a(5H)-yl)methoxy)-7-(1H-indazol-4-yl)quinazoline]
< 6.30	< 6.30	Nc1nc2c(-c3c(Cl)cc4c(N5C[C@H]6CC[C@@H](C5)C6(F)F)nc(OC[C@@]56CCCN5C[C@H](F)C6)nc4c3F)ccc(F)c2s1 [Compound 655, 4-(6-chloro-4-((1R,5S)-8,8-difluoro-3-azabicyclo[3.2.1]-octan-3-yl)-8-fluoro-2-(((2R,7aS)-2-fluorotetra-hydro-1H-pyrrolizin-7a(5H)-yl)methoxy)quinazolin-7-yl)-7-fluorobenzo[d]thiazol-2-amine]
> 6.30	< 6.30	CNCCN1[C@@H]2CC[C@H]1CN(c1nc(OCC34CCCN3CCC4)nc3c(F)c(-c4ccc(F)c5sc(N)nc45)c(Cl)cc13)C2 [Compound 656, 4-(6-chloro-8-fluoro-4-((1R,5S)-8-(2-(methyl-amino)-ethyl)-3,8-diaza-bicyclo[3.2.1]octan-3-yl)-2-((tetrahydro-1H-pyrrol-izin-7a(5H)-yl)methoxy)-quinazolin-7-yl)-7-fluoro-benzo[d]thiazol-2-amine]
< 6.30	< 6.30	Fc1c(-c2cccc3cn[nH]c23)ccc2c(N3CC4CCC(C3)N4)nc(OC[C@@]34CCCN3C[C@H](F)C4)nc12 [Compound 657, 4-(3,8-diazabicyclo[3.2.1]-octan-3-yl)-8-fluoro-2-(((2R,7aS)-2-fluorotetra-hydro-1H-pyrrolizin-7a(5H)-yl)methoxy)-7-(1H-indazol-7-yl)quinazoline]
< 6.30	< 6.30	Oc1cc(CN2CCc3nc(OCC45CCCN4CCC5)nc(N4CC5CCC(C4)N5)c3CC2)c2ccccc2c1 [Compound 658, 4-((4-(3,8-diazabicyclo-[3.2.1]-octan-3-yl)-2-((tetrahydro-1H-pyrrolizin-7a(5H)-yl)methoxy)-5,6,8,9-tetrahydro-7H-pyrimido-[4,5-d]azepin-7-yl)methyl)-naphthalen-2-ol]
< 6.30	< 6.30	Cc1ccc(C2(N)CC2)cc1-c1c(Cl)cc2c(N3CC4CCC(C3)N4)nc(OCC34CCCN3CCC4)nc2c1F [Compound 661, 1-(3-(4-(3,8-diazabicyclo-[3.2.1]octan-3-yl)-6-chloro-8-fluoro-2-((tetrahydro-1H-pyrrolizin-7a(5H)-yl)meth-oxy)quinazolin-7-yl)-4-methylphenyl)cyclopropan-1-amine]
< 6.30	< 6.30	Nc1nc2c(-c3c(Cl)cc4c(N5CC6CCC(C5)N6)nc(OC[C@@]56CCCN5C[C@H](F)C6)nc4c3F)cccc2cc1F [Compound 665, 8-(4-(3,8-diazabicyclo-[3.2.1]octan-3-yl)-6-chloro-8-fluoro-2-(((2R,7aS)-2-fluorotetrahydro-1H-pyrrol-izin-7a(5H)-yl)methoxy)-quinazolin-7-yl)-3-fluoro-quinolin-2-amine]
